In US20140187548A1, “6 SUBSTITUTED IMIDAZOPYRAZINES FOR USE AS MPS-1 AND TKK INHIBITORS IN THE TREATMENT OF HYPERPROLIFERATIVE DISORDERS” (BAYER INTELLECTUAL PROPERTY GMBH, priority 2010, published 2014):

What follows are compounds tested against T1, human kinase Mps-1 (Homo sapiens, UniProt P33981) (assay: Mps-1 kinase assay (TR-FRET)). Conditions: N-terminally GST-tagged human full length recombinant Mps-1; 10 μM ATP; 1 μM peptide substrate; 15 min pre-incubation; 60 min at 22° C.
T1 construct: N-terminally GST-tagged human full length recombinant Mps-1 kinase; GST (N); purchased Invitrogen, Karslruhe, Germany PV4071
T1 sequence (P33981 1-857): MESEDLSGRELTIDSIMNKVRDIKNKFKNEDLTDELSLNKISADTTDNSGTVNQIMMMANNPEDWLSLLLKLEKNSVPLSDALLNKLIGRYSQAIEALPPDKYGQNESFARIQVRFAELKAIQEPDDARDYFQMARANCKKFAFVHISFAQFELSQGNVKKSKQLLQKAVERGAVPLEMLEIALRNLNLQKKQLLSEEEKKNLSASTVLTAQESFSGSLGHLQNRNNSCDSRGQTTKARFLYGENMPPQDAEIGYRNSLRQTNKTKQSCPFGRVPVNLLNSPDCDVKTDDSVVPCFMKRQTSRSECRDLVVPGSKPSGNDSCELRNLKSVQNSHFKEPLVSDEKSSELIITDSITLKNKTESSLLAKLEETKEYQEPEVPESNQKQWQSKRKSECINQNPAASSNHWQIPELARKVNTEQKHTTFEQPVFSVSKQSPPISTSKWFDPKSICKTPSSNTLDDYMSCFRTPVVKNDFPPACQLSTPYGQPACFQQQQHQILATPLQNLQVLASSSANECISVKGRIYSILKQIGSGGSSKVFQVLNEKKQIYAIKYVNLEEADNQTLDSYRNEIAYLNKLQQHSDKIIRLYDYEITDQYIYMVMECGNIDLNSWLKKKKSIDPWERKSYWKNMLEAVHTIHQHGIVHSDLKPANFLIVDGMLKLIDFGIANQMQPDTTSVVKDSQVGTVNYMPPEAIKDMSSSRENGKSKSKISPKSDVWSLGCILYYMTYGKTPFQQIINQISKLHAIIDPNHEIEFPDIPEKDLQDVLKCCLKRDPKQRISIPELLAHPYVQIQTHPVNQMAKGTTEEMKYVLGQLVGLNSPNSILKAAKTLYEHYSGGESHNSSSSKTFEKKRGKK
Format: biochemical
Method in brief: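 TR-FRET read-out: after 1 h binding at 22° C, Eu-labelled anti-phospho-Ser/Thr antibody transfers to SA-XLent on the phosphorylated biotinylated peptide. The enzyme is GST-tagged full-length human Mps-1, typically about 1 nM final, in the linear range.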

`CN(C)c1ccc(-c2cn3c(-c4ccc(C(=O)NC5CC5)c(Cl)c4)cnc3c(NCC(C)(C)O)n2)cc1` [Example 1-99, 2-chloro-N-cyclopropyl-4-{6-[4-(dimethylamino)phenyl]-8-[(2-hydroxy-2-methylpropyl)amino]imidazo[1,2-a]pyrazin-3-yl}benzamide] and `CN(C)c1ccc(-c2cn3c(-c4ccc(C(=O)NC5CC5)c(Cl)c4)cnc3c(NCc3ccnn3C)n2)cc1` [Example 1-108, 2-chloro-N-cyclopropyl-4-(6-[4-(dimethylamino)phenyl]-8-{[(1-methyl-1H-pyrazol-5-yl)methyl]amino}imidazo [1,2-a]pyrazin-3-yl) benzamide] are within 1.5-fold of each other in IC50: 31.1 nM for the first, 43.9 nM for the second.

Compared with `CC(C)(O)CNc1nc(-c2ccccc2CO)cn2c(-c3ccc(C(=O)NC4CC4)c(Cl)c3)cnc12` [Example 1-100, 2-chloro-N-cyclopropyl-4-{6-[2-(hydroxymethyl)phenyl]-8-[(2-hydroxy-2-methylpropyl)amino]imidazo[1,2-a]pyrazin-3-yl}benzamide], `O=C(NC1CC1)c1ccc(-c2cnc3c(NCC4CCCO4)nc(-c4ccccc4CO)cn23)cc1Cl` (stereo not drawn) [Example 1-106, 2-chloro-N-cyclopropyl-4-{6-[2-(hydroxymethyl)phenyl]-8-[(tetrahydro-furan-2-ylmethyl)amino]imidazo[1,2-a]pyrazin-3-yl}benzamide] is 1.5-fold lower in IC50: 86.5 nM for the first, 56.2 nM for the second.

`CC(C)(O)CNc1nc(-c2ccn[nH]2)cn2c(-c3ccc(C(=O)NC4CC4)c(Cl)c3)cnc12` [Example 1-101, 2-chloro-N-cyclopropyl-4-{8-[(2-hydroxy-2-methyl-propyl)amino]-6-(1H-pyrazol-5-yl)imidazo [1,2-a]pyrazin-3-yl} benzamide] and `CC(C)(O)CNc1nc(C2=CCOCC2)cn2c(-c3ccc(C(=O)NC4CC4)c(Cl)c3)cnc12` [Example 1-102, 2-chloro-N-cyclopropyl-4-{6-(3,6-dihydro-2H-pyran-4-yl)-8-[(2-hydroxy-2-methylpropyl)amino]imidazo[1,2-a]pyrazin-3-yl}benzamide] are within 1.5-fold of each other in IC50: 91.3 nM for the first, 99 nM for the second.

Going from `O=C(NC1CC1)c1ccc(-c2cnc3c(NCC4CCCO4)nc(-c4ccc(F)cc4)cn23)cc1Cl` (stereo not drawn) [Example 1-103, 2-chloro-N-cyclopropyl-4-{6-(4-fluorophenyl)-8-[(tetrahydrofuran-2-ylmethyl)amino]imidazo [1,2-a]pyrazin-3-yl} benzamide] to `CN(C)c1ccc(-c2cn3c(-c4ccc(C(=O)NC5CC5)c(Cl)c4)cnc3c(NCC3CCCO3)n2)cc1` (stereo not drawn) [Example 1-105, 2-chloro-N-cyclopropyl-4-{6-[4-(dimethylamino)phenyl]-8-[(tetrahydro-furan-2-ylmethyl)amino]imidazo[1,2-a]pyrazin-3-yl}benzamide], the IC50 rises from 28.7 nM to 78.3 nM (2.7-fold). The first is the more potent here.

Going from `Cn1nccc1CNc1nc(-c2ccc(F)cc2)cn2c(-c3ccc(C(=O)NC4CC4)c(Cl)c3)cnc12` [Example 1-107, 2-chloro-N-cyclopropyl-4-[6-(4-fluorophenyl)-8-{[(1-methyl-1H-pyrazol-5-yl)methyl]amino}imidazo[1,2-a]pyrazin-3-yl]benzamide] to `CC(C)CNc1nc(-c2ccc(F)cc2)cn2c(-c3ccc(C(=O)NC4CC4)c(F)c3)cnc12` [Example 1-109, N-cyclopropyl-2-fluoro-4-{6-(4-fluorophenyl)-8-[(2-methylpropyl)amino]imidazo[1,2-a]pyrazin-3-yl}benzamide], the IC50 falls from 13.2 nM to 5.3 nM (2.5-fold).

First: CC(C)CNc1nc(-c2ccc(N(C)C)cc2)cn2c(-c3ccc(C(=O)NC4CC4)c(F)c3)cnc12 [Example 1-110, N-cyclopropyl-4-{6-[4-(dimethylamino)phenyl]-8-[(2-methylpropyl)amino]imidazo[1,2-a]pyrazin-3-yl}-2-fluoro-benzamide]
Second: CC(C)CNc1nc(-c2ccccc2CO)cn2c(-c3ccc(C(=O)NC4CC4)c(F)c3)cnc12 [Example 1-111, N-cyclopropyl-2-fluoro-4-{6-[2-(hydroxymethyl)phenyl]-8-[(2-methyl-propyl)amino]imidazo [1,2-a]pyrazin-3-yl} benzamide]
The IC50 of the first is 4.2-fold higher: 12.6 nM for the first, 3 nM for the second.
